{"source": "BindingDB's records for doi:10.7270/Q2251GJ9", "about": "(The Scripps Research Institute Molecular Screening Center, 2007)", "target": "Sphingosine 1-phosphate receptor 1 (Homo sapiens, UniProt P21453)", "sequence (P21453 whole entry)": "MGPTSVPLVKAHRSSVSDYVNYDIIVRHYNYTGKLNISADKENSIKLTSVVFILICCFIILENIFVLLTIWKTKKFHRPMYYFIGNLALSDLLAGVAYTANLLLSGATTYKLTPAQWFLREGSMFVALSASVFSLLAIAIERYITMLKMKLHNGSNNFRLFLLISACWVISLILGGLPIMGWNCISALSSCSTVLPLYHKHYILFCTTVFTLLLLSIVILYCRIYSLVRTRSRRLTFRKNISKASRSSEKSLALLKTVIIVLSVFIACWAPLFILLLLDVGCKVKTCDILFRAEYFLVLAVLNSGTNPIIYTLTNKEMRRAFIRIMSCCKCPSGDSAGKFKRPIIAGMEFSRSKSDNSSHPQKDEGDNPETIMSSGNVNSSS", "assay": "S1P1 receptor agonists, dose response, cell-based, agonist mode, 60K MLSMR set (AID 468)", "key": {"[1]": {"details": "inactive by the depositor's call"}}}
{"molecule": "O=C(Nc1cccc(C(F)(F)F)c1)C1CCCN1S(=O)(=O)c1cccc2cccnc12", "note": "(stereo not drawn) [1-(8-quinolinylsulfonyl)-N-[3-(trifluoromethyl)phenyl]-2-pyrrolidinecarboxamide]", "values": [{"measurement": "EC50", "result": 4.74, "unit": "µM"}]}
{"molecule": "O=C(Nc1ccc(C(F)(F)F)cc1)C1CCCN1S(=O)(=O)c1cccc2cccnc12", "note": "(stereo not drawn) [1-(8-quinolinylsulfonyl)-N-[4-(trifluoromethyl)phenyl]-2-pyrrolidinecarboxamide]", "values": [{"measurement": "EC50", "result": 9.86, "unit": "µM"}]}
{"molecule": "O=C(C1CCC1)N1CCc2cc(S(=O)(=O)Nc3ccc4c(c3)OCCO4)ccc21", "note": "[1-(cyclobutanecarbonyl)-N-(2,3-dihydro-1,4-benzodioxin-6-yl)-2,3-dihydroindole-5-sulfonamide]", "values": [{"measurement": "EC50", "setting": "[1]", "result": 38.9, "unit": "µM"}]}
{"molecule": "O=C(C1CC1)N1CCc2cc(S(=O)(=O)NCC3COc4ccccc4O3)ccc21", "note": "(stereo not drawn) [1-(cyclopropanecarbonyl)-N-(2,3-dihydro-1,4-benzodioxin-3-ylmethyl)-2,3-dihydroindole-5-sulfonamide]", "values": [{"measurement": "EC50", "setting": "[1]", "result": 14, "unit": "µM"}]}
{"molecule": "CCn1nc(-c2ccccc2)nc2c(=O)n(C)c(=O)nc1-2", "note": "[1-Ethyl-6-methyl-3-phenyl-1H-pyrimido[5,4-e][1,2,4]triazine-5,7-dione]", "values": [{"measurement": "EC50", "result": 3.55, "unit": "µM"}]}
{"molecule": "Cc1cc(C(=O)CSc2nnc(-c3ccco3)o2)c(C)n1-c1ccc2c(c1)OCCO2", "note": "[1-[1-(2,3-dihydro-1,4-benzodioxin-6-yl)-2,5-dimethyl-3-pyrrolyl]-2-[[5-(2-furanyl)-1,3,4-oxadiazol-2-yl]thio]ethanone]", "values": [{"measurement": "EC50", "result": 7.58, "unit": "µM"}]}
{"molecule": "Cc1cc(C(=O)CSc2nnnn2C)c(C)n1-c1cccc(F)c1", "note": "[1-[1-(3-fluorophenyl)-2,5-dimethyl-3-pyrrolyl]-2-[(1-methyl-5-tetrazolyl)thio]ethanone]", "values": [{"measurement": "EC50", "result": 2.23, "unit": "µM"}]}
{"molecule": "COc1ccc(-n2c(C)cc(C(=O)CSc3nnc(-c4cccs4)o3)c2C)cc1", "note": "[1-[1-(4-methoxyphenyl)-2,5-dimethyl-3-pyrrolyl]-2-[(5-thiophen-2-yl-1,3,4-oxadiazol-2-yl)thio]ethanone]", "values": [{"measurement": "EC50", "result": 2.03, "unit": "µM"}]}
{"molecule": "COc1ccc(-n2c(C)c(C(C)=O)c3cc(O)ccc32)cc1", "note": "[1-[1-(4-methoxyphenyl)-2-methyl-5-oxidanyl-indol-3-yl]ethanone]", "values": [{"measurement": "EC50", "setting": "[1]", "result": 15.6, "unit": "µM"}]}
{"molecule": "CCN(CC)c1ccc(-n2c(C)c(C(C)=O)c(C(C)=O)c2C)cc1", "note": "[1-[1-[4-(diethylamino)phenyl]-4-ethanoyl-2,5-dimethyl-pyrrol-3-yl]ethanone]", "values": [{"measurement": "EC50", "setting": "[1]", "result": 11.4, "unit": "µM"}]}
{"molecule": "Cc1csc(SCC(=O)c2cc(C)n(Cc3cccs3)c2C)n1", "note": "[1-[2,5-dimethyl-1-(2-thenyl)pyrrol-3-yl]-2-[(4-methylthiazol-2-yl)thio]ethanone]", "values": [{"measurement": "EC50", "result": 6.76, "unit": "µM"}]}
{"molecule": "Cc1ccc(-n2c(C)cc(C(=O)CSc3nnnn3C)c2C)cc1", "note": "[1-[2,5-dimethyl-1-(4-methylphenyl)-3-pyrrolyl]-2-[(1-methyl-5-tetrazolyl)thio]ethanone]", "values": [{"measurement": "EC50", "result": 4.77, "unit": "µM"}]}
{"molecule": "Cc1cc(C)n2nc(SCC(=O)c3cc(C)n(-c4cc(C)on4)c3C)nc2n1", "note": "[1-[2,5-dimethyl-1-(5-methyl-1,2-oxazol-3-yl)pyrrol-3-yl]-2-[(5,7-dimethyl-[1,2,4]triazolo[1,5-a]pyrimidin-2-yl)sulfanyl]ethanone]", "values": [{"measurement": "EC50", "result": 4.18, "unit": "µM"}]}
{"molecule": "CC(Oc1ccccc1Br)C(=O)N1CCc2ccccc21", "note": "(stereo not drawn) [1-[2-(2-bromophenoxy)propanoyl]indoline]", "values": [{"measurement": "EC50", "result": 6.81, "unit": "µM"}]}
{"molecule": "Cc1ccc(OCCn2cc(C(=N)NO)c3ccccc32)cc1C", "note": "[1-[2-(3,4-dimethylphenoxy)ethyl]-N'-hydroxy-1H-indole-3-carboximidamide]", "values": [{"measurement": "EC50", "result": 9.82, "unit": "µM"}]}
{"molecule": "CCOc1ccc(-c2nc(CSCC(=O)N3CCN(c4cccc(OC)c4)CC3)c(C)o2)cc1", "note": "[1-[4-(3-methoxyphenyl)piperazino]-2-[(5-methyl-2-p-phenetyl-oxazol-4-yl)methylthio]ethanone]", "values": [{"measurement": "EC50", "result": 9.02, "unit": "µM"}]}
{"molecule": "O=C(NCc1ccco1)C1CCN(C(=O)c2cc3sccc3n2Cc2ccc(Cl)cc2)CC1", "note": "[1-[4-(4-chlorobenzyl)thieno[3,2-b]pyrrole-5-carbonyl]-N-(2-furfuryl)isonipecotamide]", "values": [{"measurement": "EC50", "setting": "[1]", "result": 10.6, "unit": "µM"}]}
{"molecule": "CC(C)(CC(=O)N1CCN(c2ccc(Cl)cc2)CC1)CC1=NS(=O)(=O)c2ccccc2N1", "note": "[1-[4-(4-chlorophenyl)-1-piperazinyl]-4-(1,1-dioxo-4H-1,2,4-benzothiadiazin-3-yl)-3,3-dimethyl-1-butanone]", "values": [{"measurement": "EC50", "setting": "[1]", "result": 10.5, "unit": "µM"}]}
{"molecule": "Cc1nnc(SCC(=O)N2CCC(c3noc4ccc(F)cc34)CC2)s1", "note": "[1-[4-(5-fluoranyl-1,2-benzoxazol-3-yl)piperidin-1-yl]-2-[(5-methyl-1,3,4-thiadiazol-2-yl)sulfanyl]ethanone]", "values": [{"measurement": "EC50", "result": 4.27, "unit": "µM"}]}
{"molecule": "CCCC(=O)c1ccc(N2CCN(C(=O)c3ccccc3Br)CC2)c(F)c1", "note": "[1-[4-[4-(2-bromobenzoyl)piperazin-1-yl]-3-fluorophenyl]butan-1-one]", "values": [{"measurement": "EC50", "setting": "[1]", "result": 11.9, "unit": "µM"}]}
{"molecule": "CC(=O)c1ccc(N2CCN(c3ccc(C(F)(F)F)cn3)CC2)cc1", "note": "[1-[4-[4-[5-(trifluoromethyl)-2-pyridinyl]-1-piperazinyl]phenyl]ethanone]", "values": [{"measurement": "EC50", "setting": "[1]", "result": 29.4, "unit": "µM"}]}
{"molecule": "Fc1ccccc1COc1ccc(C=Nn2cnnc2)cc1", "note": "[1-[4-[(2-fluorophenyl)methoxy]phenyl]-N-(1,2,4-triazol-4-yl)methanimine]", "values": [{"measurement": "EC50", "result": 4.62, "unit": "µM"}]}
{"molecule": "Fc1ccc(COc2ccc(C=Nn3cnnc3)cc2)cc1", "note": "[1-[4-[(4-fluorophenyl)methoxy]phenyl]-N-(1,2,4-triazol-4-yl)methanimine]", "values": [{"measurement": "EC50", "result": 8.28, "unit": "µM"}]}
{"molecule": "CC(=O)N1C=CN(C(C)=O)C(c2cn(C)c3ccccc23)C1c1cn(C)c2ccccc12", "note": "(stereo not drawn) [1-[4-acetyl-2,3-bis(1-methyl-3-indolyl)-2,3-dihydropyrazin-1-yl]ethanone]", "values": [{"measurement": "EC50", "setting": "[1]", "result": 26.2, "unit": "µM"}]}
{"molecule": "COc1ccc(C(c2c(O)ccc3ccccc23)N2CCOCC2)c(OC)c1", "note": "(stereo not drawn) [1-[(2,4-dimethoxyphenyl)-(4-morpholinyl)methyl]-2-naphthalenol]", "values": [{"measurement": "EC50", "result": 4.94, "unit": "µM"}]}
{"molecule": "CCc1ccc(-c2nc(CSCC(=O)N3CCN(c4ccccn4)CC3)c(C)o2)cc1", "note": "[1-[({[2-(4-ethylphenyl)-5-methyl-1,3-oxazol-4-yl]methyl}thio)acetyl]-4-pyridin-2-ylpiperazine]", "values": [{"measurement": "EC50", "setting": "[1]", "result": 11.8, "unit": "µM"}]}
{"molecule": "Cc1cccc(-c2nc(CSCC(=O)N3CCN(c4ccccn4)CC3)c(C)o2)c1", "note": "[1-[({[5-methyl-2-(3-methylphenyl)-1,3-oxazol-4-yl]methyl}thio)acetyl]-4-pyridin-2-ylpiperazine]", "values": [{"measurement": "EC50", "setting": "[1]", "result": 13.6, "unit": "µM"}]}
{"molecule": "Cc1ccc(-c2csc3ncnc(Sc4nnc(CN5CCCCCC5=O)o4)c23)cc1", "note": "[1-[[5-[5-(4-methylphenyl)thieno[2,3-d]pyrimidin-4-yl]sulfanyl-1,3,4-oxadiazol-2-yl]methyl]azepan-2-one]", "values": [{"measurement": "EC50", "result": 2.35, "unit": "µM"}]}
{"molecule": "Nc1nnnn1N=C/C(Br)=C/c1ccccc1", "note": "[1-[[(Z)-2-bromanyl-3-phenyl-prop-2-enylidene]amino]-1,2,3,4-tetrazol-5-amine]", "values": [{"measurement": "EC50", "result": "> 10", "unit": "µM"}]}
{"molecule": "CC(=O)N1CCCc2cc(S(=O)(=O)NCCC3=CCCCC3)ccc21", "note": "[1-acetyl-N-(2-cyclohex-1-en-1-ylethyl)-1,2,3,4-tetrahydroquinoline-6-sulfonamide]", "values": [{"measurement": "EC50", "setting": "[1]", "result": 14.5, "unit": "µM"}]}
{"molecule": "CCCCCn1c(=O)c(C(=O)NCc2ccncc2)c(O)c2ccccc21", "note": "[1-amyl-2-hydroxy-4-keto-N-(4-pyridylmethyl)quinoline-3-carboxamide]", "values": [{"measurement": "EC50", "setting": "[1]", "result": 19.8, "unit": "µM"}]}
{"molecule": "COc1cc2c(cc1OC)C(C)N(C(=O)c1cc3ccccc3o1)CC2", "note": "(stereo not drawn) [1-benzofuran-2-yl-(6,7-dimethoxy-1-methyl-3,4-dihydro-1H-isoquinolin-2-yl)methanone]", "values": [{"measurement": "EC50", "result": "> 95", "unit": "µM"}]}
{"molecule": "Cc1nn(Cc2ccccc2)c(C)c1C(=O)OCC(=O)c1cc(C)n(C2CC2)c1C", "note": "[1-benzyl-3,5-dimethyl-pyrazole-4-carboxylic acid [2-(1-cyclopropyl-2,5-dimethyl-pyrrol-3-yl)-2-keto-ethyl] ester]", "values": [{"measurement": "EC50", "setting": "[1]", "result": 13.9, "unit": "µM"}]}
